Assay results: ChEMBL document CHEMBL1146319, “Design, synthesis, and in vivo evaluation of oxamniquine methacrylate and acrylamide prodrugs” (2007)

Key:
Format in all cases: functional
Schistosoma mansoni [1] = assay: Antiparasitic activity against Schistosoma mansoni BH cercareae infected Swiss mouse assessed as average number of eggs at 2 stage after 20 days by oogram test
Schistosoma mansoni [2] = assay: Antiparasitic activity against Schistosoma mansoni BH cercareae infected Swiss mouse assessed as total number of worms after 10 days by mesenteric veins perfusion technique
Schistosoma mansoni [3] = assay: Antiparasitic activity against Schistosoma mansoni BH cercareae infected Swiss mouse assessed as average number of eggs at 3 stage after 20 days by oogram test
Schistosoma mansoni [4] = assay: Antiparasitic activity against Schistosoma mansoni BH cercareae infected Swiss mouse as total numbers of worms after 20 days by mesenteric veins perfusion technique
Schistosoma mansoni [5] = assay: Antiparasitic activity against Schistosoma mansoni BH cercareae infected Swiss mouse assessed as average number of eggs at 1 stage after 10 days by oogram test
Schistosoma mansoni [6] = assay: Antiparasitic activity against Schistosoma mansoni BH cercareae infected Swiss mouse assessed as average number of eggs at 1 stage after 20 days by oogram test
Schistosoma mansoni [7] = assay: Antiparasitic activity against Schistosoma mansoni BH cercareae infected Swiss mouse assessed as average number of eggs at 3 stage after 10 days by oogram test
Schistosoma mansoni [8] = assay: Antiparasitic activity against Schistosoma mansoni BH cercareae infected Swiss mouse assessed as average number of eggs at 2 stage after 10 days by oogram test

CC(C)NCC1CCc2cc(CO)c([N+](=O)[O-])cc2N1 (stereo unspecified) [OXAMNIQUINE]
Activity (Schistosoma mansoni [1]): 0
Activity (Schistosoma mansoni [2]): 3
Activity (Schistosoma mansoni [3]): 0
Activity (Schistosoma mansoni [4]): 13
Activity (Schistosoma mansoni [5]): 0
Activity (Schistosoma mansoni [6]): 0
Activity (Schistosoma mansoni [7]): 0
Activity (Schistosoma mansoni [8]): 0

C=C(C)C(=O)OCc1cc2c(cc1[N+](=O)[O-])NC(CNC(C)C)CC2 (stereo unspecified) [OXAMNIQUINE ACRYLAMIDE]
Activity (Schistosoma mansoni [1]): 0.09
Activity (Schistosoma mansoni [2]): 48
Activity (Schistosoma mansoni [3]): 0.27
Activity (Schistosoma mansoni [4]): 39
Activity (Schistosoma mansoni [5]): 0
Activity (Schistosoma mansoni [6]): 0
Activity (Schistosoma mansoni [7]): 0.22
Activity (Schistosoma mansoni [8]): 0.11
